Experimental data as given in US20240343747A1, “Heteroaryl compounds as inhibitors of TYK2, composition and application thereof” (Accro Bioscience (HK) Limited, priority 2021, published 2024).

Assays:
[1] = Pharmacokinetic evaluation in mice; format: in vivo; conditions: for plasma exposure and bioavailability in mice (in words): conclusion from Table 9; for AUC / Vd / clearance / half-life / Cmax / Tmax: male, mouse, plasma; for AUC / Vd / clearance / half-life / Cmax / Tmax / F: mice
Method: (§1) The mice pharmacokinetic characteristics of compounds were tested by standard protocols. The candidate compounds were made into clear solution for single intravenous injection (i.v.) and suspension for oral administration (p.o.). Intravenous vehicle is 5% DMSO+10% Solutol+85% Saline. Of which adjusts pH to 3 for B37. While oral vehicle is 0.5% CMCNa for B2 and B22, 5% DMSO+10% Solutol+85% Saline, PH˜3 for B37, 5% DMSO+10% Solutol+85% Saline for B41. The experiment used 6 male mice and 3 mice for intravenous at a dose of 2 mg/kg. Plasma samples were collected at 0 h (before dosing) and 0.083 h, 0.25 h, 0.5 h, 1 h, 2 h, 4 h, 8 h, 24 h after dosing. Another 3 mice were orally administrated with a dose of 10 mg/kg. Plasma samples were collected at 0 h (before dosing) and 0.25 h, 0.5 h, 1 h, 2 h, 4 h, 6 h, 8 h, 24 h after dosing.
(§2) Blood samples were placed in tubes containing K2-EDTA and stored on ice until centrifuged. The blood samples were centrifuged at 6800 g for 6 minutes at 2-8° C. within 1 h after collected, and stored frozen at approximately −80° C.
(§3) The analytical results were confirmed using quality control samples for intra-assay variation. The accuracy of >66.7% of the quality control samples and 50% of all QC samples at each concentration level were between 80-120% of the known value(s).
(§4) Standard set of parameters including area under the curve (AUC(0-t) and AUC(0-∞)), elimination half-live (T1/2), maximum plasma concentration (Cmax), time to reach maximum plasma concentration (Tmax) were calculated using noncompartmental analysis modules in FDA certified pharmacokinetic program Phoenix WinNonlin 7.0 (Pharsight, USA) by the Study Director.

[2] = Plasma protein binding test, dog; format: in vitro ADME
Method: (§5) • 1. Test compound and control compound were dissolved in dimethyl sulfoxide (DMSO) to achieve 10 mM stock solutions. DMSO working solutions were prepared at 400 μM. To prepare the loading matrix, compound working solutions (5 μL) were added in a 1:200 ratio to blank matrix (995 μL), and mixed thoroughly. • 2. To prepare the time zero (TO) samples to be used for recovery determination, 50 μL aliquots of loading matrix were transferred in triplicate to the sample collection plate. The samples were immediately matched with opposite blank buffer to obtain a final volume of 100 μL of 1:1 matrix/dialysis buffer (v/v) in each well. 500 μL of stop solution were added to these TO samples. They were then stored at 2-8° C. pending further processes along with other post-dialysis samples. • 3. To load the dialysis device, an aliquot of 150 μL of the loading matrix was transferred to the donor side of each dialysis well in triplicate, and 150 μL of the dialysis buffer was loaded to the receiver side of the well. The dialysis plate was placed in a humidified incubator at 37° C. with 5% CO2 on a shaking platform that rotated slowly (about 100 rpm) for 4 hours • 4. At the end of the dialysis, aliquots of 50 μL of samples were taken from both the buffer side and the matrix side of the dialysis device. These samples were transferred into new 96-well plates. Each sample was mixed with an equal volume of opposite blank matrix (buffer or matrix) to reach a final volume of 100 μL of 1:1 matrix/dialysis buffer (v/v) in each well. All samples were further processed by adding 500 μL of stop solution containing internal standards. The mixture was vortexed and centrifuged at 4000 rpm for about 20 minutes. An aliquot of 100 μL of supernatant of all the samples was then removed for LC-MS/MS analysis • 5. The single blank samples were prepared by transferring […] of blank matrix to a 96 well plate and adding 50 μL of blank PBS buffer to each well. The blank plasma must match the species of plasma used in the plasma side of the well. […]
(§6) The % Unbound and % Bound were calculated using the following equations: […]

[3] = Pharmacokinetic evaluation in rats; format: in vivo, rat; conditions: for plasma exposure and bioavailability in rat (in words): conclusion from Table 10; for AUC / Vd / clearance / half-life / Cmax / Tmax: male, plasma; for AUC / Vd / clearance / half-life / Cmax / Tmax / F: rat
Method: as §1, with “The rat” for “The mice”, “Saline, pH˜3” for “Saline, PH˜3”, “male rats” for “male mice”, “3 rats” for “3 mice”, “dosing.” for “dosing. Another”, “administrated at” for “administrated with”
as §2, §3, §4

[4] = Plasma protein binding test, mouse; format: in vitro ADME
Method: as §5, §6

| plasma exposure and bioavailability in mice (in words) [1] | AUC ([1]; iv, i.v. 2 mg/kg) [ng·h/mL] | Vd ([1]; iv, i.v. 2 mg/kg) [L/kg] | clearance ([1]; iv, i.v. 2 mg/kg) [mL/min/kg] | half-life ([1]; iv, i.v. 2 mg/kg) [h] | AUC ([1]; po, p.o. 10 mg/kg) [ng·h/mL] | Cmax ([1]; po, p.o. 10 mg/kg) [ng/mL] | Tmax ([1]; po, p.o. 10 mg/kg) [h] | F ([1]; p.o. 10 mg/kg) [%] | fraction unbound at 4 h, 2 μM [2] | plasma exposure and bioavailability in rat (in words) [3] | AUC ([3]; iv, i.v. 2 mg/kg) [ng·h/mL] | Vd ([3]; iv, i.v. 2 mg/kg) [L/kg] | clearance ([3]; iv, i.v. 2 mg/kg) [mL/min/kg] | half-life ([3]; iv, i.v. 2 mg/kg) [h] | AUC ([3]; po, p.o. 10 mg/kg) [ng·h/mL] | Cmax ([3]; po, p.o. 10 mg/kg) [ng/mL] | Tmax ([3]; po, p.o. 10 mg/kg) [h] | F ([3]; p.o. 10 mg/kg) [%] | fraction unbound at 4 h, 2 μM [4] | Compound |
| --- | --- | --- | --- | --- | --- | --- | --- | --- | --- | --- | --- | --- | --- | --- | --- | --- | --- | --- | --- | --- |
| good plasma exposure and bioavailability | 2670 | 1.2 | 12.7 | 1.1 | 11900 | 6560 | 0.5 | 89 | 0.019 | good plasma exposure and bioavailability | 2880 | 1 | 11.6 | 1 | 6900 | 1800 | 2.83 | 48 | 0.018 | [2H]C([2H])([2H])NC(=O)c1nnc(NC(=O)C2CC2)cc1Nc1cccc(-c2cc(P(=O)(C3CC3)C3CC3)n(C)n2)c1OC [Compound B41, 6-(cyclopropanecarboxamido)-4-((3-(5-(dicyclopropylphosphoryl)-1-methyl-1H-pyrazol-3-yl)-2-methoxyphenyl)amino)-N-(methyl-d3)pyridazine-3-carboxamide] |
| good plasma exposure and bioavailability | 2160 | 0.84 | 15.5 | 0.63 | 8420 | 4250 | 0.42 | 78 | – | good plasma exposure and bioavailability | 3090 | 0.9 | 10.9 | 0.96 | 9420 | 1890 | 2.05 | 61 | – | CCC(=O)c1cnc(NC(=O)C2CC2)cc1Nc1cccc(-c2cc(P(=O)(C3CC3)C3CC3)n(C)n2)c1OC [Compound B37, N-(4-((3-(5-(dicyclopropylphosphoryl)-1-methyl-1H-pyrazol-3-yl)-2-methoxyphenyl)amino)-5-propionylpyridin-2-yl)cyclopropanecarboxamide] |
| good plasma exposure and bioavailability | 1940 | 1.5 | 17.2 | 1 | 4140 | 1180 | 3 | 43 | 0.119 | good plasma exposure and bioavailability | 2430 | 1.5 | 13.8 | 1.3 | 5900 | 2020 | 0.67 | 49 | 0.067 | CCC(=O)c1cnc(NC(=O)C2CC2)cc1Nc1cccc(-c2cc(P(C)(C)=O)n(C)n2)c1OC [Compound B2, N-(4-((3-(5-(dimethylphosphoryl)-1-methyl-1H-pyrazol-3-yl)-2-methoxyphenyl)amino)-5-propionylpyridin-2-yl)cyclopropanecarboxamide] |
| good plasma exposure and bioavailability | 1350 | 3.1 | 25.4 | 1.4 | 6370 | 2630 | 0.33 | 94 | 0.156 | – | 2670 | 1.4 | 12.7 | 1.3 | 2280 | 694 | 1.83 | 17 | 0.03 | [2H]C([2H])([2H])n1nc(-c2cccc(Nc3cc(NC(=O)C4CC4)ncc3C(=O)CC)c2OC)cc1P(C)(C)=O [Compound B22] |
